The values that follow come from patent publication US20260132129A1 (Genesis Therapeutics, Inc., priority 2022, published 2026).

This assay deals with T1, PI3Kα H1047R (T47D cells) (Homo sapiens, UniProt P42336, H1047R).
T1 construct: endogenous in cells; host or cells: T47D cells
The assay can be described thus: PI3Kα cellular assay: pAKT HTRF in T47D cells after EGF stimulation. In kind it is cell-based. Particulars: for IC50: T47D cells (PI3Kα H1047R), pAKT S473 HTRF, EGF stimulation. In outline: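 T47D cells (PIK3CA H1047R) serum-starved 16 h, then treated 1 h at 37 °C with compound (10,000 nM top, 3-fold steps to 0.5 nM). After 10 min stimulation with 20 ng/mL EGF, cells were lysed and pAKT measured by HTRF.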
On the technique in general: Time-resolved FRET reads energy transfer from a long-lived donor to a nearby acceptor.

By IC50 is commonly meant the point on the concentration scale where inhibition reaches its midpoint. Low values mean greater potency, high ones weaker potency.

T1 sequence (P42336 whole entry H1047R): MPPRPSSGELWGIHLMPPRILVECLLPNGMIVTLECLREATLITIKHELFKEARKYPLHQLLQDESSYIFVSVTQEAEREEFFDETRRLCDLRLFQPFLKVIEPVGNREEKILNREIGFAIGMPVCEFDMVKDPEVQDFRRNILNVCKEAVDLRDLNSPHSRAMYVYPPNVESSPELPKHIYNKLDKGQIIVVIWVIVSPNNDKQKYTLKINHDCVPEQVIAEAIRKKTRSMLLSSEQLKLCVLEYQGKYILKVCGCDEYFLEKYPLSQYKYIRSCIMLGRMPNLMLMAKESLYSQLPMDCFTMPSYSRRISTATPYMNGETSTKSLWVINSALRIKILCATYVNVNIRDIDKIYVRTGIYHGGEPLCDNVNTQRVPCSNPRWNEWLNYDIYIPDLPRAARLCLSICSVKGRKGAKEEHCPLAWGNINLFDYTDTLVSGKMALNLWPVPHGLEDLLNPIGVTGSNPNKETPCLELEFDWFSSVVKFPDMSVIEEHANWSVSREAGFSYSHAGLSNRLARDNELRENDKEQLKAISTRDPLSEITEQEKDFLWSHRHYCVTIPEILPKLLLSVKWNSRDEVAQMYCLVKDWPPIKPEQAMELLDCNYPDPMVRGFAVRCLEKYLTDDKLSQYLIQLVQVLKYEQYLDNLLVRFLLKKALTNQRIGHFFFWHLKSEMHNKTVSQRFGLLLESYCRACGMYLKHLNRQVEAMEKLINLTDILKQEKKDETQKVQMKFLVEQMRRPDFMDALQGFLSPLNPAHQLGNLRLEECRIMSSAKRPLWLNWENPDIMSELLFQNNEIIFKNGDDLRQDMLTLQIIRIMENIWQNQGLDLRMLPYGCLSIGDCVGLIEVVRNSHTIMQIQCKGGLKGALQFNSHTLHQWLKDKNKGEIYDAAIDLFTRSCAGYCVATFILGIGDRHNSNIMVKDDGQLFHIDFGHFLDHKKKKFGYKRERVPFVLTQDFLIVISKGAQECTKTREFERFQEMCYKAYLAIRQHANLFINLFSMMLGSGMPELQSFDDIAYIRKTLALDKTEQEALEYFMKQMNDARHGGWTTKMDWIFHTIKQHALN
T1 sequence (P27986 whole entry partner): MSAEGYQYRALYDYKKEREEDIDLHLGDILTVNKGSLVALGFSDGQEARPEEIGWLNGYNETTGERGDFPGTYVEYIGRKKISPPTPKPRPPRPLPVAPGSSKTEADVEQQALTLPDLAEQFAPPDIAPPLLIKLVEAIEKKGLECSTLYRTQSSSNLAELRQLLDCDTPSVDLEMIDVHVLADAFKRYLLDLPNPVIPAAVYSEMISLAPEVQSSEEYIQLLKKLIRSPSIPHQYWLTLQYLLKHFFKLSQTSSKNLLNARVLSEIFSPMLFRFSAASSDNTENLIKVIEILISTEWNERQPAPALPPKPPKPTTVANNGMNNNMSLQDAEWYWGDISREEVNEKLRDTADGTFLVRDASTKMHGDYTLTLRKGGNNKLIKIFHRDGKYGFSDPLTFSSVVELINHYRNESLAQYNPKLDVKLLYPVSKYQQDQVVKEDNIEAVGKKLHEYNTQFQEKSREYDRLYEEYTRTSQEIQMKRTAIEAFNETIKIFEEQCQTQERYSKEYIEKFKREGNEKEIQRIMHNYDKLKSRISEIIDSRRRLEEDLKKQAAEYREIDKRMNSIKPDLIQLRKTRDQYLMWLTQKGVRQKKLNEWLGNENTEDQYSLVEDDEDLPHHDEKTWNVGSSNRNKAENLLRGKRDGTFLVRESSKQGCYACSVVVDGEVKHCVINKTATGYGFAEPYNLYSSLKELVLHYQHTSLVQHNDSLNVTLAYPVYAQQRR

Take `C=CC(=O)Nc1ccc(C(=O)O)c(N[C@@H](C)c2cc(C)cn3c(=O)c(C)c(N4Cc5ccccc5C4)nc23)c1` [Compound 1122]: the IC50 was > 2 µM and the “T47D pAKT S473 HTRF IC50 (H1047R): T47D (H1047R) selectivity over SKBR3 (WT)” value is “C (C denotes ≤5-fold)”.
For `Cc1cc([C@@H](C)Nc2ccccc2)c2nc(-c3ccc(F)cc3)c(C)c(=O)n2c1` [Compound 1123], the IC50 is > 2 µM and the “T47D pAKT S473 HTRF IC50 (H1047R): T47D (H1047R) selectivity over SKBR3 (WT)” value is reported as “C (C denotes ≤5-fold)”.
For `Cc1cc([C@H](C)Nc2ccccc2)c2nc(-c3ccc(F)cc3)c(C)c(=O)n2c1` [Compound 1124], the IC50 is > 2 µM and the “T47D pAKT S473 HTRF IC50 (H1047R): T47D (H1047R) selectivity over SKBR3 (WT)” value is on record as “C (C denotes ≤5-fold)”.
For `Cc1cc([C@H](C)Nc2ccccc2C(=O)O)c2nc(-c3ccc4c(C)nn(C5CC5)c4c3)c(C)c(=O)n2c1` [Compound 1126], in that order: > 2 µM and “C (C denotes ≤5-fold)”.
With `Cc1cc(C(C)Nc2ccccc2-c2ccnnc2)c2nc(-c3ccc4c(C)nn(C5CC5)c4c3)c(C)c(=O)n2c1` (stereo not drawn) [Compound 1127], the IC50 is > 2 µM and the “T47D pAKT S473 HTRF IC50 (H1047R): T47D (H1047R) selectivity over SKBR3 (WT)” value is on record as “C (C denotes ≤5-fold)”.
For `Cc1cc([C@@H](C)Nc2ccccc2-c2ccnnc2)c2nc(-c3ccc4c(C)nn(C5CC5)c4c3)c(C)c(=O)n2c1` [Compound 1128], in that order: > 2 µM and “C (C denotes ≤5-fold)”.
`Cc1cc([C@H](C)Nc2ccccc2-c2ccnnc2)c2nc(-c3ccc4c(C)nn(C5CC5)c4c3)c(C)c(=O)n2c1` [Compound 1129]: the IC50 was in the range of 0.5 to 2 µM and the “T47D pAKT S473 HTRF IC50 (H1047R): T47D (H1047R) selectivity over SKBR3 (WT)” value is listed as “B (B denotes 20-fold≥value>5-fold)”.
For the compound `Cc1cc([C@H](C)Nc2ccccc2C(N)=O)c2nc(-c3ccc4c(C)cn(C)c4c3)c(C)c(=O)n2c1` [Compound 1131], the IC50 is > 2 µM and the “T47D pAKT S473 HTRF IC50 (H1047R): T47D (H1047R) selectivity over SKBR3 (WT)” value was “C (C denotes ≤5-fold)”.
For `Cc1cc(C(C)Nc2ccccc2-c2ccnnc2)c2nc(-c3ccc4c(C)cn(C)c4c3)c(C)c(=O)n2c1` (stereo not drawn) [Compound 1132], in that order: > 2 µM and “C (C denotes ≤5-fold)”.
For `Cc1cc([C@@H](C)Nc2ccccc2-c2ccnnc2)c2nc(-c3ccc4c(C)cn(C)c4c3)c(C)c(=O)n2c1` [Compound 1133], in that order: > 2 µM and “C (C denotes ≤5-fold)”.
For `Cc1cc([C@H](C)Nc2ccccc2-c2ccnnc2)c2nc(-c3ccc4c(C)cn(C)c4c3)c(C)c(=O)n2c1` [Compound 1134], in that order: 0.5 to 2 µM and “B (B denotes 20-fold≥value>5-fold)”.
As for `Cc1cc([C@@H](C)Nc2ccccc2C(N)=O)c2nc(-c3cnc(C)c(Cl)c3)c(C)c(=O)n2c1` [Compound 1135], the half-inhibitory concentration (IC50) was in the range of 0.1 to 0.5 µM and the “T47D pAKT S473 HTRF IC50 (H1047R): T47D (H1047R) selectivity over SKBR3 (WT)” value is “A (A denotes >20-fold)”.
For `Cc1cc([C@H](C)Nc2ccccc2C(N)=O)c2nc(-c3cnc(C)c(Cl)c3)c(C)c(=O)n2c1` [Compound 1136], in that order: > 2 µM and “C (C denotes ≤5-fold)”.
For `Cc1cc([C@@H](C)Nc2ccccc2C(N)=O)c2nc(-c3cccc(C#N)c3)c(C)c(=O)n2c1` [Compound 1137], in that order: < 0.1 µM and “A (A denotes >20-fold)”.
For `Cc1cc([C@H](C)Nc2ccccc2C(N)=O)c2nc(-c3cccc(C#N)c3)c(C)c(=O)n2c1` [Compound 1138] the same measures were > 2 µM and “C (C denotes ≤5-fold)”.
Take `Cc1cc(C(C)Nc2ccccc2-c2ccnnc2)c2nc(-c3ccc(C)c(Cl)c3)c(C)c(=O)n2c1` (stereo not drawn) [Compound 1140]: the “T47D pAKT S473 HTRF IC50 (H1047R): T47D (H1047R) selectivity over SKBR3 (WT)” value is given as “A (A denotes >20-fold)”.
Consider `Cc1cc([C@@H](C)Nc2ccccc2-c2ccnnc2)c2nc(-c3cnc(C)c(Cl)c3)c(C)c(=O)n2c1` [Compound 1141], for which the “T47D pAKT S473 HTRF IC50 (H1047R): T47D (H1047R) selectivity over SKBR3 (WT)” value is “C (C denotes ≤5-fold)”.
In the case of `Cc1cc(C(C)Nc2ccccc2-c2ccnnc2)c2nc(-c3cccnc3)c(C)c(=O)n2c1` (stereo not drawn) [Compound 1143], the IC50 fell in the range of 0.1 to 0.5 µM and the “T47D pAKT S473 HTRF IC50 (H1047R): T47D (H1047R) selectivity over SKBR3 (WT)” value is on record as “A (A denotes >20-fold)”.
For `Cc1cc([C@@H](C)Nc2ccccc2-c2ccnnc2)c2nc(-c3cccnc3)c(C)c(=O)n2c1` [Compound 1144], the IC50 is > 2 µM and the “T47D pAKT S473 HTRF IC50 (H1047R): T47D (H1047R) selectivity over SKBR3 (WT)” value is listed as “C (C denotes ≤5-fold)”.
For `Cc1cc([C@H](C)Nc2ccccc2-c2ccnnc2)c2nc(-c3cccnc3)c(C)c(=O)n2c1` [Compound 1145], in that order: 0.1 to 0.5 µM and “A (A denotes >20-fold)”.
For `Cc1cc([C@@H](C)Nc2ccccc2C(=O)O)c2nc(-c3ccc(C4CCOCC4)nc3)c(C)c(=O)n2c1` [Compound 1146], in that order: < 0.1 µM and “A (A denotes >20-fold)”.
For `Cc1cc([C@H](C)Nc2ccccc2C(=O)O)c2nc(-c3ccc(C4CCOCC4)nc3)c(C)c(=O)n2c1` [Compound 1147] the same measures were > 2 µM and “C (C denotes ≤5-fold)”.
Turning to `Cc1cc([C@H](C)Nc2ccccc2C(=O)O)c2nc(-c3ccc(C(F)F)nc3)c(C)c(=O)n2c1` [Compound 1149], the IC50 is > 2 µM and the “T47D pAKT S473 HTRF IC50 (H1047R): T47D (H1047R) selectivity over SKBR3 (WT)” value is reported as “C (C denotes ≤5-fold)”.
In the case of `CC1=CN2C(=O)C(C)C(c3ccc(CCC(C)(C)C)cc3)N=C2C([C@H](C)Nc2ccccc2C(=O)O)=C1` (stereo partly drawn) [Compound 1151], the “T47D pAKT S473 HTRF IC50 (H1047R): T47D (H1047R) selectivity over SKBR3 (WT)” value is listed as “C (C denotes ≤5-fold)”.
Take `Cc1cc(C(C)Nc2ccccc2C(N)=O)c2nc(-c3cccnc3)c(C)c(=O)n2c1` (stereo not drawn) [Compound 1152]: the IC50 was 0.1 to 0.5 µM and the “T47D pAKT S473 HTRF IC50 (H1047R): T47D (H1047R) selectivity over SKBR3 (WT)” value is “A (A denotes >20-fold)”.
For `Cc1cc([C@@H](C)Nc2ccccc2C(N)=O)c2nc(-c3ccc(C4CC4)nc3)c(C)c(=O)n2c1` [Compound 1153], in that order: 0.1 to 0.5 µM and “A (A denotes >20-fold)”.
As to `Cc1cc([C@H](C)Nc2ccccc2C(N)=O)c2nc(-c3ccc(C4CC4)nc3)c(C)c(=O)n2c1` [Compound 1154], the IC50 is > 2 µM and the “T47D pAKT S473 HTRF IC50 (H1047R): T47D (H1047R) selectivity over SKBR3 (WT)” value is on record as “C (C denotes ≤5-fold)”.
For `Cc1cc([C@@H](C)Nc2ccccc2C(=O)O)c2nc(-c3ccnc(C4CC4)c3)cc(=O)n2c1` [Compound 1155], the IC50 is > 2 µM and the “T47D pAKT S473 HTRF IC50 (H1047R): T47D (H1047R) selectivity over SKBR3 (WT)” value is listed as “C (C denotes ≤5-fold)”.
For `Cc1cc([C@H](C)Nc2ccccc2C(=O)O)c2nc(-c3ccnc(C4CC4)c3)cc(=O)n2c1` [Compound 1156], in that order: < 0.1 µM and “A (A denotes >20-fold)”.
For `Cc1cc([C@@H](C)Nc2ccccc2C(=O)O)c2nc(-c3cnc(C)c(Cl)c3)cc(=O)n2c1` [Compound 1157] the same measures were 0.1 to 0.5 µM and “A (A denotes >20-fold)”.
